IC50 and EC50 data for four compounds are collected here from US8143243B2, “Compounds for the treatment of hepatitis C” (Bristol-Myers Squibb Company, priority 2007, dated 2012).

Read-outs that look alike come from different tables or passages of the source.

One test concerns the target T1, HCV NS5B (Hepatitis C virus genotype 1b, UniProt Q9WMX2).
T1 construct: The protein was expressed with an 18 amino acid C-terminal truncation to enhance the solubility; made in house; host or cells: E. coli BL21 (DE3)
The test can be described thus: HCV NS5B RdRp enzyme assay (standard / modified). Type of test: biochemical. In a few lines: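 SPA detection of 3H-UTP (0.29 μM) incorporation by C-terminally truncated (18 aa) genotype 1b NS5B from E. coli, on polyA/biotin-oligo-dT12 at 30° C, pH 7.5 Hepes, 2% DMSO. Modified format: 14 nM enzyme, 0.2 nM template, 20 nM primer prebound to beads, 4 h; standard: 28 nM, 6 nM, 180 nM free primer, 60 min. Seven-point IC50 fit.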

Another test has as its system HCV replicon cells. Description: HCV replicon FRET / luciferase assay. It is filed as cell-based. Conditions: Hepatitis C virus. In a few lines: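 Readout was NS3 protease cleavage of an EDANS/DABCYL FRET peptide (20 μM final) in lysed HCV replicon cells, or Renilla luciferase in reporter replicons. Background came from wells with the highest level of control protease inhibitor. EC50 marked the concentration giving 50% signal reduction.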

T1 sequence (Q9WMX2 2420-2992): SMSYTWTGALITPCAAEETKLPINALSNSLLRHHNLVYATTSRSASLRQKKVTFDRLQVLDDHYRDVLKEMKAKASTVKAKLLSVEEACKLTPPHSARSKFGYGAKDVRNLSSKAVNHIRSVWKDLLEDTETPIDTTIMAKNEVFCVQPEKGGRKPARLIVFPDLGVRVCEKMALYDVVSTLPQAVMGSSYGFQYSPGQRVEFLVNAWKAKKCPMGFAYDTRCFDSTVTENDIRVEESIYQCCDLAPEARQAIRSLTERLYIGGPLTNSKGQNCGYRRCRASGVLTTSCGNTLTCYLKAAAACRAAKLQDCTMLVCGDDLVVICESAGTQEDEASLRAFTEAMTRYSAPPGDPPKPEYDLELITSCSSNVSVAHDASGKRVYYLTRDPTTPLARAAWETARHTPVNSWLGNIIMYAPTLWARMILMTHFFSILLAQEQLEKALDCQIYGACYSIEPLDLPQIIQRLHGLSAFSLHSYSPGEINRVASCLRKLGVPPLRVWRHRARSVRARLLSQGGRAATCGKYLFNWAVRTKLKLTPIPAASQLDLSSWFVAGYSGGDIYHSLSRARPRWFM

Broadly, the IC50 is the concentration that gives 50% inhibition. The term EC50 denotes the concentration that produces a half-maximal response. In turn, `COc1ccc2c(c1)C=C(c1c(C(=O)N3C4CCC3COC4)cnn1CC(F)(F)F)Cn1c-2c(C2CCCCC2)c2ccc(C(=O)NS(=O)(=O)C(C)C)cc21` registered an IC50 against HCV NS5B of 1 to 500 nM. This compound gave an EC50 in the test on HCV replicon cells of 1 to 500 nM.

Turning to `CCN1C[C@@H]2C[C@H]1CN2C(=O)c1cnn(CC)c1C1=Cc2cc(OC)ccc2-c2c(C3CCCCC3)c3ccc(C(=O)NS(=O)(=O)C(C)C)cc3n2C1`, the IC50 on HCV NS5B (HCV RdRp genotype 1b enzyme, read-out: IC50) was 1 to 500 nM. For the same compound, in the test with HCV replicon cells (HCV replicon cells, FRET or luciferase readout, read-out: EC50), the EC50 lay in the range of 1 to 500 nM.

With `COc1ccc2c(c1)C=C(c1c(C(=O)N3C4CCCC3COC4)cnn1C)Cn1c-2c(C2CCCCC2)c2ccc(C(=O)NS(=O)(=O)C3CCCC3)cc21`, the IC50 on HCV NS5B lay in the range of 1 to 500 nM. Moreover, the EC50 with HCV replicon cells lay within 1 to 500 nM.

For the compound `COc1ccc2c(c1)C=C(c1c(C(=O)N3C4CCC3CC(C)(O)C4)cnn1CC(F)(F)F)Cn1c-2c(C2CCCCC2)c2ccc(C(=O)NS(=O)(=O)C(C)C)cc21` (centres unmarked), the IC50 against HCV NS5B was 1 to 500 nM. In the test on HCV replicon cells, this compound returned an EC50 of 1 to 500 nM.
